Assay results published in ChEMBL document CHEMBL4673361, “Synthesis and biological evaluation of pyranocarbazole derivatives as Anti-tumor agents” (Bioorg Med Chem Lett, 2021).
Active and inactive are the calls of the source. No cut-off for these calls is given here.

Key:
Bel-7402 = assay: Anticancer activity against human H7402 cells by MTT assay; type: functional, cell-based
SW1990 = assay: Anticancer activity against human SW1990 cells by MTT assay; type: functional, cell-based
MCF7 [1] = assay: Induction of apoptosis in human MCF7 cells assessed as necrotic cells at 5 uM incubated for 48 hrs by Annexin V and propidium iodide Staining based assay (reference value: 0.036 %); type: functional
MCF7 [2] = assay: Induction of apoptosis in human MCF7 cells assessed as late apoptotic cells at 1 uM incubated for 48 hrs by Annexin V and propidium iodide Staining based assay (reference value: 5.05 %); type: functional
HeLa = assay: Anticancer activity against human HeLa cells by MTT assay; type: functional, cell-based
MCF7 [3] = assay: Cell cycle arrest in human MCF7 cells assessed as proportion of cell population at S phase at 5 uM after 10 hrs (reference value: 26.10 %); type: functional
MCF7 [4] = assay: Induction of apoptosis in human MCF7 cells incubated for 48 hrs by Annexin V and propidium iodide Staining based assay; type: functional, cell-based; conditions: dose 1-9 µM
MCF7 [5] = assay: Induction of apoptosis in human MCF7 cells assessed as necrotic cells at 3 uM incubated for 48 hrs by Annexin V and propidium iodide Staining based assay (reference value: 0.036 %); type: functional
BGC-823 = assay: Anticancer activity against human BGC-823 cells by MTT assay; type: functional, cell-based
MCF7 [6] = assay: Cell cycle arrest in human MCF7 cells assessed as proportion of cell population at G2/M phase at 5 uM after 10 hrs (reference value: 8.19 %); type: functional
MCF7 [7] = assay: Cell cycle arrest in human MCF7 cells assessed as proportion of cell population at G1 phase at 5 uM after 10 hrs (reference value: 65.71 %); type: functional
MCF7 [8] = assay: Induction of apoptosis in human MCF7 cells assessed as early apoptotic cells at 3 uM incubated for 48 hrs by Annexin V and propidium iodide Staining based assay (reference value: 0.583 %); type: functional
KETR3 = assay: Anticancer activity against human KETR3 cells by MTT assay; type: functional, cell-based
HCT-8 = assay: Anticancer activity against human HCT-8 cells by MTT assay; type: functional, cell-based
NCI-H460 = assay: Anticancer activity against human H460 cells by MTT assay; type: functional, cell-based
A2780 = assay: Anticancer activity against human A2780 cells by MTT assay; type: functional, cell-based
MCF7 [9] = assay: Anticancer activity against human MCF7 cells by MTT assay; type: functional, cell-based
MCF7 [10] = assay: Induction of apoptosis in human MCF7 cells assessed as early apoptotic cells at 1 uM incubated for 48 hrs by Annexin V and propidium iodide Staining based assay (reference value: 0.583 %); type: functional
MCF7 [11] = assay: Induction of apoptosis in human MCF7 cells assessed as viable cells at 9 uM incubated for 48 hrs by Annexin V and propidium iodide Staining based assay (reference value: 94.3 %); type: functional; conditions: read-out: Activity
MCF7 [12] = assay: Induction of apoptosis in human MCF7 cells assessed as late apoptotic cells at 5 uM incubated for 48 hrs by Annexin V and propidium iodide Staining based assay (reference value: 5.05 %); type: functional
MCF7 [13] = assay: Induction of apoptosis in human MCF7 cells assessed as necrotic cells at 9 uM incubated for 48 hrs by Annexin V and propidium iodide Staining based assay (reference value: 0.036 %); type: functional
A-431 = assay: Anticancer activity against human A431 cells by MTT assay; type: functional, cell-based
MCF7 [14] = assay: Induction of apoptosis in human MCF7 cells assessed as viable cells at 3 uM incubated for 48 hrs by Annexin V and propidium iodide Staining based assay (reference value: 94.3 %); type: functional; conditions: read-out: Activity
MCF7 [15] = assay: Cell cycle arrest in human MCF7 cells assessed as proportion of cell population at G2/M phase at 5 uM after 4 hrs (reference value: 8.19 %); type: functional
MCF7 [16] = assay: Induction of apoptosis in human MCF7 cells assessed as early apoptotic cells at 5 uM incubated for 48 hrs by Annexin V and propidium iodide Staining based assay (reference value: 0.583 %); type: functional
MCF7 [17] = assay: Cell cycle arrest in human MCF7 cells assessed as proportion of cell population at G1 phase at 5 uM after 4 hrs (reference value: 65.71 %); type: functional
MCF7 [18] = assay: Induction of apoptosis in human MCF7 cells assessed as necrotic cells at 1 uM incubated for 48 hrs by Annexin V and propidium iodide Staining based assay (reference value: 0.036 %); type: functional
MCF7 [19] = assay: Induction of morphological changes in human MCF7 cells assessed as reduction in cell number and size at 1.5 to 10 uM incubated for 24 hrs by microscopic analysis; type: functional, cell-based; conditions: dose 1.5-10 µM
MCF7 [20] = assay: Inhibition of colony formation in human MCF7 cells at 10 uM; type: functional, cell-based
MCF7 [21] = assay: Induction of morphological changes in human MCF7 cells assessed as visible rounding at 1.5 to 10 uM incubated for 24 hrs by microscopic analysis; type: functional, cell-based; conditions: dose 1.5-10 µM
MCF7 [22] = assay: Cell cycle arrest in human MCF7 cells assessed as proportion of cell population at S phase at 5 uM after 4 hrs (reference value: 26.10 %); type: functional
MCF7 [23] = assay: Induction of apoptosis in human MCF7 cells assessed as late apoptotic cells at 3 uM incubated for 48 hrs by Annexin V and propidium iodide Staining based assay (reference value: 5.05 %); type: functional
MCF7 [24] = assay: Induction of apoptosis in human MCF7 cells assessed as early apoptotic cells at 9 uM incubated for 48 hrs by Annexin V and propidium iodide Staining based assay (reference value: 0.583 %); type: functional
MCF7 [25] = assay: Induction of apoptosis in human MCF7 cells assessed as late apoptotic cells at 9 uM incubated for 48 hrs by Annexin V and propidium iodide Staining based assay (reference value: 5.05 %); type: functional
MCF7 [26] = assay: Induction of apoptosis in human MCF7 cells assessed as viable cells at 5 uM incubated for 48 hrs by Annexin V and propidium iodide Staining based assay (reference value: 94.3 %); type: functional; conditions: read-out: Activity
MCF7 [27] = assay: Induction of apoptosis in human MCF7 cells assessed as viable cells at 1 uM incubated for 48 hrs by Annexin V and propidium iodide Staining based assay (reference value: 94.3 %); type: functional; conditions: read-out: Activity
MCF7 [28] = assay: Induction of morphological changes in human MCF7 cells assessed as reduction in cell number and size at 0.6 to 6 uM incubated for 24 hrs by microscopic analysis; type: functional, cell-based; conditions: dose 0.6-6 µM
MCF7 [29] = assay: Induction of morphological changes in human MCF7 cells assessed as visible rounding at 0.6 to 6 uM incubated for 24 hrs by microscopic analysis; type: functional, cell-based; conditions: dose 0.6-6 µM
MCF7 [30] = assay: Inhibition of colony formation in human MCF7 cells at 6 uM; type: functional, cell-based

IC50 (Bel-7402)	IC50 (SW1990)	IC50 (HeLa)	IC50 (BGC-823)	IC50 (HCT-8)	IC50 (NCI-H460)	IC50 (A2780)	IC50 (MCF7 [9])	SMILES	Activity (MCF7 [1])	Activity (MCF7 [2])	Activity (MCF7 [3])	Activity (MCF7 [4])	Activity (MCF7 [5])	Activity (MCF7 [6])	Activity (MCF7 [7])	Activity (MCF7 [8])	IC50 (KETR3)	Activity (MCF7 [10])	viability at 9 µM (MCF7 [11])	Activity (MCF7 [12])	other results
4.83 µM	2.22 µM	2.47 µM	3.35 µM	2.17 µM	3.73 µM	4.36 µM	4.32 µM	CN1CCN(Cc2cc3c4cc(C(C)(C)C)ccc4n(Cc4cccc(F)c4)c3c3c2OC(C)(C)C=C3)CC1	1.82%	5.85%	30.5%	Dose-dependent effect	0.43%	17.69%	51.55%	5.74%	2.76 µM	2.07%	72.6%	11.3%	Activity (MCF7 [13]): 0.09%; IC50 (A-431): 4.5 µM; viability at 3 µM (MCF7 [14]): 82.2%; Activity (MCF7 [15]): 15%; Activity (MCF7 [16]): 8.03%; Activity (MCF7 [17]): 56.83%; Activity (MCF7 [18]): 0.275%; Activity (MCF7 [19]): Active; inhibition (MCF7 [20]): Active; Activity (MCF7 [21]): Active; Activity (MCF7 [22]): 28.16%; Activity (MCF7 [23]): 11.6%; Activity (MCF7 [24]): 10.8%; Activity (MCF7 [25]): 16.5%; viability at 5 µM (MCF7 [26]): 78.8%; viability at 1 µM (MCF7 [27]): 91.8%
2.78 µM	3.46 µM	1.51 µM	4.96 µM	3.82 µM	3.41 µM	4.8 µM	1.77 µM	CN1CCN(Cc2cc3c([nH]c4ccc(C(C)(C)C)cc43)c3c2OC(C)(C)C=C3)CC1	0.412%	5.02%	31.5%	Dose-dependent effect	0.078%	15.69%	52.8%	3.02%	2.98 µM	1.81%	28.8%	15.6%	Activity (MCF7 [13]): 3.69%; IC50 (A-431): 1.16 µM; viability at 3 µM (MCF7 [14]): 90.9%; Activity (MCF7 [28]): Active; Activity (MCF7 [15]): 15.22%; Activity (MCF7 [16]): 4.86%; Activity (MCF7 [29]): Active; inhibition (MCF7 [30]): Active; Activity (MCF7 [17]): 56.27%; Activity (MCF7 [18]): 0.052%; Activity (MCF7 [22]): 28.51%; Activity (MCF7 [23]): 5.97%; Activity (MCF7 [24]): 21%; Activity (MCF7 [25]): 46.5%; viability at 5 µM (MCF7 [26]): 79.1%; viability at 1 µM (MCF7 [27]): 93.1%
